According to the NIST ThermoML archive (doi:10.1021/acs.jced.6b00460):

Assay: xn = mol fraction of the nth substance listed
Details: 101 kPa, Liquid; for speed of sound: Sing-around technique in a fixed-path interferometer; for mass density: Vibrating tube method

CCCCCC[n+]1ccccc1.[Cl-] [1-hexylpyridinium chloride] + O
Details	mass density, 308.15 K [kg/m3]	mass density, 318.15 K [kg/m3]	speed of sound, 308.15 K [m/s]	speed of sound, 318.15 K [m/s]
x2 = 0.0598	1146.46	1142.37	1569.2	1548.7
x2 = 0.1085	1146.26	1142.04	1567.4	1548.1
x2 = 0.2068	1145.6	1141.23	1564.8	1547.2
x2 = 0.2492	1145.16	1140.76	1563.9	1546.6
x2 = 0.3024	1144.44	1140.03	1562.9	1546
x2 = 0.4166	1142.05	1137.61	1560.3	1544.8
x2 = 0.4568	1140.82	1136.36	1559.6	1544.1
x2 = 0.5065	1138.92	1134.43	1557.6	1543.4
x2 = 0.6137	1132.92	1128.25	1553.2	1542
x2 = 0.6533	1129.75	1124.99	1550.8	1541.4
x2 = 0.709	1124.03	1119.08	1547.4	1540.6
x2 = 0.7521	1118.2	1113.12	1542.8	1540
x2 = 0.7936	1110.94	1105.73	1539.5	1539.4
x2 = 0.8561	1095.34	1090.02	1534	1538.6
x2 = 0.8966	1080.31	1074.99	1529.9	1538.2
x2 = 0.9528	1046.95	1042	1524.5	1537.2
